Series [1] deals with T1, N-terminally GST-tagged mTOR (truncated version: amino acids 1360-2549) (Homo sapiens, UniProt P42345).
T1 construct: truncated version: amino acids 1360-2549; purchased Life Technologies PR8683B
Put plainly: In vitro mTOR binding assay (LanthaScreen TR-FRET). The note with it: 10 nM Tracer 314, 30 min RT.
Experimental: In Vitro mTOR Binding Assay
A 10-point 4-fold serial dilution (highest concentration at 10 μmol/L and lowest concentration at 40 pmol/L) of each compound was tested for mTOR binding in duplicate in a 384-well plate. […] After 30 min incubation at RT, time-resolved FRET was measured with a Synergy 4 multi-mode microplate reader (Biotek Instruments) using the following settings: 100 microsecs delay before data collection, 200 microsecs time for data collection, 10 measurements per data point.
IC50 values of each compound were determined by plotting the emission ratio versus the compound concentrations (in logarithmic scale) and then by fitting a sigmoidal dose-response curve with variable slope to the data using GraphPad™ Prism.

Another series concerns pPKB S473 in A2058 cells. Put plainly: In-cell Western blot, pPKB S473. The note with it: Homo sapiens, A2058, 1 h, 1 hour treatment, normalized to α-tubulin. In kind it is cell-based.
Series [2] has as its system pS6 S235/S236 in A2058 cells. Put plainly: In-cell Western blot, pS6 S235/S236. In kind it is cell-based. As to conditions: 1 hour treatment, normalized to α-tubulin.
Experimental: (§1) Cells are fixed with 4% paraformaldehyde for 30 minutes at room temperature, washed 2 times with 1% BSA in PBS, permeabilized with 0.1% Triton X-100 in PBS/1% BSA for 30 minutes at room temperature and blocked with 5% goat serum in PBS/1% BSA/0.1% Triton X-100 for 30 minutes at room temperature. […] Cells are washed 3 times 5 minutes with PBS/1% BSA/0.1% triton and plate scanned with the Odyssey Infrared Scanning system using both 700 and 800 nm channels. […] To correct for background staining in the data analysis wells are treated only with secondary antibodies.
(§2) For data analysis the mean background signal from channel 700 nm and 800 nm are subtracted from each signal in channel 700 nm and 800 nm, respectively.
(§3) IC50 values of each compound are determined by plotting the normalized pPBK S473 and pS6 S235/S236 signals, respectively, versus the compound concentrations (in logarithmic scale) and then by fitting a sigmoidal dose-response curve with variable slope to the data using GraphPad™ Prism.
The nature of series [3]: Ex vivo pig skin penetration, formulations in 80% SBECD. In kind it is in vitro ADME.
Text: The control formulation Aldara (5% imiquimod) was applied to detect variations in skin permeability (local variability in the same animal and inter-subject variability). The stratum corneum was removed by tape stripping to avoid contamination during the biopsy extraction. […] One biopsy was taken from each control site. Additionally, 5 blank samples were taken.
A short description of series [4]: Ex vivo pig skin PK profile, propylene glycol formulations. In kind it is in vitro ADME.
Text: Excised pig skin was placed in a climate chamber to control temperature and humidity. […] Before biopsies were taken the stratum corneum was removed by tape stripping and biopsies consisted of the remaining epidermis and entire dermis.
A short description of series [5]: In vivo pig skin penetration. As to conditions: living pig, single topical application, propylene glycol preparations.
A short description of series [6]: Stress stability in propyleneglycol at 60° C. (HPLC). Format: physicochemical. The note with it: 1% in propyleneglycol, 72 h. Here is the method: The fraction of residual test item was determined by HPLC. […] During the observation period of 72 hrs.
Equal concentrations (1%) of the test items in propyleneglycol were heated to 60° C. and the fraction of residual test item was determined by HPLC.

Marks after values point to notes of the source that are not given here.

T1 sequence (P42345 1360-2549): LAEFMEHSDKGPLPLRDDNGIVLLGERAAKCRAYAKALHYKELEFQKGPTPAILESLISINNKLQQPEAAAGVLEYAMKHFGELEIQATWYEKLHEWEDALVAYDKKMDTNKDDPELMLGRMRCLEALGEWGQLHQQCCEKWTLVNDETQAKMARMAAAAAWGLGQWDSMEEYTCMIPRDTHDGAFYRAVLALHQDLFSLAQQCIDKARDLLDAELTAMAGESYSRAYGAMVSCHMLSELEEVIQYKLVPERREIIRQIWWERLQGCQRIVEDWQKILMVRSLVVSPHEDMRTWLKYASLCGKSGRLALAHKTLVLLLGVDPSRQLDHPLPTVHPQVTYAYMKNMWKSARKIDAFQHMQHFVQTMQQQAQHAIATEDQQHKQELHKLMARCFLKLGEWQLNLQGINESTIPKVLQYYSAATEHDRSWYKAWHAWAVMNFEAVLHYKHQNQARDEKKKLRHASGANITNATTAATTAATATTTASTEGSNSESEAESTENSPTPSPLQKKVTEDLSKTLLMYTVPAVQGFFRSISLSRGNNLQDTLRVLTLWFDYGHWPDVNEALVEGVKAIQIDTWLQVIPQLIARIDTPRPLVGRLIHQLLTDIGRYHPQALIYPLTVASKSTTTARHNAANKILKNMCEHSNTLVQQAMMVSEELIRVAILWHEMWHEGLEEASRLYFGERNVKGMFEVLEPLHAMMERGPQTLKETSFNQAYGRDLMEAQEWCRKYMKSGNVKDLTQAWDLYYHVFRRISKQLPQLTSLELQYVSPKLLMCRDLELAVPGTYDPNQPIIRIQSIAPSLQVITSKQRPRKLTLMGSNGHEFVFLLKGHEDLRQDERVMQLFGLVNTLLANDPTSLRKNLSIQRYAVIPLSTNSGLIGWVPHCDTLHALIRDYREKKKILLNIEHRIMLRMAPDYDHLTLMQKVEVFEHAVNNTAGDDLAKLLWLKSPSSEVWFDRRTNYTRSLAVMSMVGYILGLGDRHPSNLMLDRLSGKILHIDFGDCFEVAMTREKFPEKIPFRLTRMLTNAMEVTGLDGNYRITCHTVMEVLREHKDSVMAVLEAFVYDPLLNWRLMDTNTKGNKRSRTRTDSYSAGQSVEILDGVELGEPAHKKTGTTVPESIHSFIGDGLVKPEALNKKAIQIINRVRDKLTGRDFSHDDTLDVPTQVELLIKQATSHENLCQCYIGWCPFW
Experimental for pPKB S473 in A2058 cells: as §1, §2, §3

A word on the IC50: it is the concentration that gives 50% inhibition. A lower IC50 goes with greater potency in that assay. `C[C@H]1COCCN1c1nc(-c2cnc(N)cc2C(F)F)nc(N2CCOC[C@@H]2C)n1` [Compound 6] had an IC50 in series [1] of 23 nM.
Regarding `Nc1cc(C(F)(F)F)c(-c2cc(N3CCOCC3)nc(N3CCOCC3)n2)cn1` [BKM 120], the concentration for half-maximal inhibition (IC50) was 390 nM in the series with pPKB S473 in A2058 cells and 640 nM in series [2].
Take `Nc1cc(C(F)F)c(-c2nc(N3C4CCC3COC4)nc(N3C4CCC3COC4)n2)cn1` [Compound 3, 5-(4-(3-oxa-8-azabicyclo[3.2.1]octan-8-yl)-6-(3-oxa-8-azabicyclo[3.2.1]octan-8-yl)-1,3,5-triazin-2-yl)-4-(difluoromethyl)pyridin-2-amine]: the “intrinsic penetration properties in comparison with Aldara (5% imiquimod)” value in series [3] (ex vivo pig skin) is “slightly lower”. Moreover, in series [3] (ex vivo, 1% experimental formulations, 80% SBECD), the “penetration into pig skin (lower epidermis and dermis)” value is “penetrated into pig skin (lower epidermis and dermis) to a significant extent”. In series [4] (1% in 100% PG), the “skin concentration / skin PK profile” value is “comparable to 1*”. In series [4] (1% preparations containing propylene glycol, vs Aldara), the “drug concentrations in the lower epidermis and dermis” value is “high drug concentrations in the lower epidermis and dermis”. The “levels in epidermis and dermis after tape stripping” value in series [5] was “significant levels”.
As to `CO[C@H]1C[C@@H]2CC[C@@H](C)[C@@](O)(O2)C(=O)C(=O)N2CCCC[C@H]2C(=O)O[C@H]([C@H](C)C[C@@H]2CC[C@@H](O)[C@H](OC)C2)CC(=O)[C@H](C)/C=C(\C)[C@@H](O)[C@@H](OC)C(=O)[C@H](C)C[C@H](C)/C=C/C=C/C=C/1C` [Sirolimus], the “degraded (fraction of test item lost, HPLC)” value in series [6] is 39%.

The record behind these values is patent publication US11414426B2, “Treatment of skin disorders” (PIQUR THERAPEUTICS AG, priority 2017, dated 2022).
